From patent US11691949B2, “Quinoline sulfonamide compounds and their use as antibacterial agents” (OTAGO INNOVATION LIMITED, priority 2017, dated 2023)
Values after ≈ are worked out from the molar mass of the structure shown. Like-named read-outs stand apart in the source and are kept apart here.

Legend:
Type in all cases: cell-based
E. coli ATCC 10596 = experiment: MIC by broth microdilution, E. coli; settings: Escherichia coli, read-out: E. coli ATCC 10536 MIC
Procedure: (§1) Antibacterial susceptibility testing was performed in triplicate (biological) by measuring minimum inhibitory concentrations (MICs) by broth microdilution in 96-well flat bottom microtiter plates (ThermoFisher Scientific, New Zealand). S. uberis ATCC 19436, S. aureus ATCC 6538, or E. coli ATCC 10596 cells grown overnight were diluted to an OD600 of approximately 0.025, so that the final concentration of cells in the MIC assay was approximately 5×10^5 cfu/mL in media as follows: S. uberis; Todd Hewitt Broth (THB), S. aureus; Tryptic Soy Broth (TSB) and Cation Adjusted Muller Hinton Broth (CAMHB), and E. coli; Lysogeny Borth (LB) and CAMHB, before being dispensed into microtiter wells. As required additional sterile Zinc Sulphate (Heptahydrate) was supplemented into the media, so the final concentration was 50 μM. Test compounds were added to starting wells and two-fold serial dilutions were undertaken to generate a range of inhibitor concentrations at a final volume of 200 μl. Media and test compound-free (untreated) controls were included in each microtiter plate in triplicate. After 24 h incubation at 37° C. and 200 rpm, the OD600 of wells were read using a Varioskan Flash plate reader (ThermoFisher Scientific, New Zealand). The MIC was reported as the lowest concentration of the test compound for which no growth occurred, as determined by OD600 readings. The minimum bactericidal concentration (MBC) was determined using the Miles-Misra drop-plate method to measure the viability of cells in response to test compound challenge.

S. aureus ATCC 6538 = experiment: MIC by broth microdilution, S. aureus; settings: Staphylococcus aureus, read-out: S. aureus ATCC 6538 MIC
Procedure: as §1

S. uberis ATCC 19436 = experiment: MIC by broth microdilution, S. uberis; settings: Streptococcus uberis, read-out: S. uberis ATCC 19436 MIC
Procedure: as §1

[1] = ATCC 10536 / ATCC 10596, No Zinc
[2] = ATCC 10536 / ATCC 10596, Zinc (50 μM)

CN(C)Cc1ccc2cccc(NS(=O)(=O)c3cccc(N)c3)c2n1 [ZDR162, 3-Amino-N-(2-((dimethylamino)methyl)quinolin-8-yl)benzenesulfonamide]
MIC (E. coli ATCC 10596; [1]): > 256 µg/mL
MIC (E. coli ATCC 10596; [2]): > 256 µg/mL
MIC (S. aureus ATCC 6538; ATCC6538, No Zinc): > 256 µg/mL
MIC (S. aureus ATCC 6538; ATCC6538, Zinc (50 μM)): > 256 µg/mL
MIC (S. uberis ATCC 19436; ATCC19436, No Zinc): 256 µg/mL (≈ 718 µM)
MIC (S. uberis ATCC 19436; ATCC19436, Zinc (50 μM)): 16 µg/mL (≈ 44.9 µM)

CN(C)Cc1ccc2cccc(NS(=O)(=O)c3cn(C)cn3)c2n1 [ZDR195, N-(2-((Dimethylamino)methyl)quinolin-8-yl)-1-methyl-1H-imidazole-4-sulfonamide]
MIC (E. coli ATCC 10596; [1]): > 256 µg/mL
MIC (E. coli ATCC 10596; [2]): > 256 µg/mL
MIC (S. aureus ATCC 6538; ATCC6538, No Zinc): > 256 µg/mL
MIC (S. aureus ATCC 6538; ATCC6538, Zinc (50 μM)): > 256 µg/mL
MIC (S. uberis ATCC 19436; ATCC19436, No Zinc): > 256 µg/mL
MIC (S. uberis ATCC 19436; ATCC19436, Zinc (50 μM)): 32 µg/mL (≈ 92.6 µM)

CN(C)Cc1ccc2cccc(NS(=O)(=O)c3ccc(C=O)cc3)c2n1 [ZDR324, N-(2-((Dimethylamino)methyl)quinolin-8-yl)-4-formylbenzenesulfonamide]
MIC (E. coli ATCC 10596; [1]): > 256 µg/mL
MIC (E. coli ATCC 10596; [2]): > 256 µg/mL
MIC (S. aureus ATCC 6538; ATCC6538, No Zinc): 256 µg/mL (≈ 693 µM)
MIC (S. aureus ATCC 6538; ATCC6538, Zinc (50 μM)): 256 µg/mL (≈ 693 µM)
MIC (S. uberis ATCC 19436; ATCC19436, No Zinc): 256 µg/mL (≈ 693 µM)
MIC (S. uberis ATCC 19436; ATCC19436, Zinc (50 μM)): 1 µg/mL (≈ 2.71 µM)

COCCNCc1ccc2cccc(NS(=O)(=O)c3ccc(C(F)(F)F)cc3)c2n1 [ZDR133, N-(2-(((2-Methoxyethyl)amino)methyl)quinolin-8-yl)-4-(trifluoromethyl)benzenesulfonamide]
MIC (E. coli ATCC 10596; [1]): > 256 µg/mL
MIC (E. coli ATCC 10596; [2]): 256 µg/mL (≈ 583 µM)
MIC (S. aureus ATCC 6538; ATCC6538, No Zinc): 64 µg/mL (≈ 146 µM)
MIC (S. aureus ATCC 6538; ATCC6538, Zinc (50 μM)): 256 µg/mL (≈ 583 µM)
MIC (S. uberis ATCC 19436; ATCC19436, No Zinc): 64 µg/mL (≈ 146 µM)
MIC (S. uberis ATCC 19436; ATCC19436, Zinc (50 μM)): 0.25 µg/mL (≈ 0.569 µM)

CN(C)Cc1ccc2cccc(NS(=O)(=O)c3ccccc3Cl)c2n1 [ZDR190, 2-Chloro-N-(2-((dimethylamino)methyl)quinolin-8-yl)benzenesulfonamide]
MIC (E. coli ATCC 10596; [1]): > 256 µg/mL
MIC (E. coli ATCC 10596; [2]): > 256 µg/mL
MIC (S. aureus ATCC 6538; ATCC6538, No Zinc): > 256 µg/mL
MIC (S. aureus ATCC 6538; ATCC6538, Zinc (50 μM)): > 256 µg/mL
MIC (S. uberis ATCC 19436; ATCC19436, No Zinc): 256 µg/mL (≈ 681 µM)
MIC (S. uberis ATCC 19436; ATCC19436, Zinc (50 μM)): 1 µg/mL (≈ 2.66 µM)

CC(=O)c1ccc(S(=O)(=O)Nc2cccc3ccc(CN(C)C)nc23)cc1 [ZDR070, 4-Acetyl-N-(2-((dimethylamino)methyl)quinolin-8-yl)benzenesulfonamide]
MIC (E. coli ATCC 10596; [1]): > 256 µg/mL
MIC (E. coli ATCC 10596; [2]): > 256 µg/mL
MIC (S. aureus ATCC 6538; ATCC6538, No Zinc): > 256 µg/mL
MIC (S. aureus ATCC 6538; ATCC6538, Zinc (50 μM)): > 256 µg/mL
MIC (S. uberis ATCC 19436; ATCC19436, No Zinc): > 256 µg/mL
MIC (S. uberis ATCC 19436; ATCC19436, Zinc (50 μM)): 0.5 µg/mL (≈ 1.3 µM)

O=S(=O)(Nc1cccc2ccc(CNCc3ccccc3)nc12)c1ccc(C(F)(F)F)cc1 [ZDR103]
MIC (E. coli ATCC 10596; [1]): > 256 µg/mL
MIC (E. coli ATCC 10596; [2]): > 256 µg/mL
MIC (S. aureus ATCC 6538; ATCC6538, No Zinc): 128 µg/mL (≈ 271 µM)
MIC (S. aureus ATCC 6538; ATCC6538, Zinc (50 μM)): > 256 µg/mL
MIC (S. uberis ATCC 19436; ATCC19436, No Zinc): > 256 µg/mL
MIC (S. uberis ATCC 19436; ATCC19436, Zinc (50 μM)): 0.125 µg/mL (≈ 0.265 µM)

CN(C)Cc1ccc2cccc(NS(=O)(=O)c3cccnc3)c2n1 [ZDR328, N-(2-((Dimethylamino)methyl)quinolin-8-yl)pyridine-3-sulfonamide]
MIC (E. coli ATCC 10596; [1]): > 256 µg/mL
MIC (E. coli ATCC 10596; [2]): > 256 µg/mL
MIC (S. aureus ATCC 6538; ATCC6538, No Zinc): > 256 µg/mL
MIC (S. aureus ATCC 6538; ATCC6538, Zinc (50 μM)): > 256 µg/mL
MIC (S. uberis ATCC 19436; ATCC19436, No Zinc): > 256 µg/mL
MIC (S. uberis ATCC 19436; ATCC19436, Zinc (50 μM)): 1 µg/mL (≈ 2.92 µM)

CN(C)Cc1ccc2cccc(NS(=O)(=O)c3cccc4cnccc34)c2n1 [ZDR339, N-(2-((Dimethylamino)methyl)quinolin-8-yl)isoquinoline-5-sulfonamide]
MIC (E. coli ATCC 10596; [1]): > 256 µg/mL
MIC (E. coli ATCC 10596; [2]): > 256 µg/mL
MIC (S. aureus ATCC 6538; ATCC6538, No Zinc): > 256 µg/mL
MIC (S. aureus ATCC 6538; ATCC6538, Zinc (50 μM)): > 256 µg/mL
MIC (S. uberis ATCC 19436; ATCC19436, No Zinc): 256 µg/mL (≈ 652 µM)
MIC (S. uberis ATCC 19436; ATCC19436, Zinc (50 μM)): 2 µg/mL (≈ 5.1 µM)

CN(CCN(C)Cc1ccc2cccc(NS(=O)(=O)c3ccc(C(F)(F)F)cc3)c2n1)Cc1ccc2cccc(NS(=O)(=O)c3ccc(C(F)(F)F)cc3)c2n1 [ZDR036, N,N′-(((Ethane-1,2-diylbis(methylazanediyl))bis(methylene))-bis(quinoline-2,8-diyl))bis(4-(trifluoromethyl)benzenesulfonamide)]
MIC (E. coli ATCC 10596; [1]): > 256 µg/mL
MIC (E. coli ATCC 10596; [2]): > 256 µg/mL
MIC (S. aureus ATCC 6538; ATCC6538, No Zinc): > 256 µg/mL
MIC (S. aureus ATCC 6538; ATCC6538, Zinc (50 μM)): > 256 µg/mL
MIC (S. uberis ATCC 19436; ATCC19436, No Zinc): > 256 µg/mL
MIC (S. uberis ATCC 19436; ATCC19436, Zinc (50 μM)): > 256 µg/mL
